The text below walks through data of PubChem BioAssay (NCI).

Where “and” joins values, the source holds several entries; their conditions need not be identical. Identical values can stand only once.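 Results reflect a 48-hour exposure of cells in 96-well plates to compound at five concentrations. The concentration for 50% growth inhibition is given as GI50. TGI marks complete inhibition of growth.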

What all share (assay): NCI anticancer screen, dose series, 48 h
The test system of assay [1] is LOX IMVI melanoma.
Assay [2] relates to IGROV1 ovarian.
The test system of assay [3] is SNB-75 CNS.
Assay [4] has as its system SR leukemia.
Assay [5] relates to NCI-H522 lung.
Assay [6] deals with HOP-62 NSCLC.
The subject of assay [7] is MDA-MB-435.
In assay [8] the test system is SNB-19 CNS.
In assay [9] the test system is SK-MEL-2 melanoma.
Assay [10] deals with MDA-MB-231 breast.

For the molecule `NCCCNc1nc2ccccc2c2c(=O)c3cc(F)cc(Cl)c3sc12`, the GI50 in assay [1] is 1.68 µM; in assay [2] it was 1.58 µM; in assay [3], 1.54 µM; in assay [4], 1.19 µM; in assay [5], 1.76 µM; in assay [6], 1.77 µM. The GI50 is 1.66 µM in [7], 1.77 µM in assay [8], 8.86 µM in assay [9] and 1.58 µM in assay [10]. Moreover, the TGI was 3.14 µM in assay [1]; 3.12 µM in assay [2]; 2.96 µM in assay [3]; 4.04 µM in [4]; 3.68 µM in assay [5]; 3.9 µM in [6]. Moreover, the TGI in assay [7] is 3.04 µM; in assay [8], 3.33 µM; in assay [9], 24 µM; in assay [10], 3.07 µM.

As for `CN(C)C/C=C/C(=O)Nc1cc2c(Nc3cccc(Cl)c3F)ncnc2cc1OCCOC(F)F`, the GI50 in assay [1] is 1.62 µM; in assay [2] it was < 0.0142 µM; in assay [3] it was 0.494 µM; in [4], 1.18 µM; in assay [5] it was 0.0289 µM; in assay [6], 1.99 µM. In addition, the GI50 was 2.22 µM in assay [7], 1.97 µM in assay [8], 1.94 µM in assay [9] and 1.09 µM in assay [10]. For the same molecule, the TGI amounted to 7.09 µM in assay [1]; 1.07 µM in [2]; 3.79 µM in assay [3]; 5.22 µM in assay [4]; 2.04 µM in assay [5]; 11.5 µM in assay [6]. In addition, the TGI in assay [7] amounted to 11.2 µM; in [8], 13.3 µM; in [9], 6.27 µM; in [10], 7.78 µM.

As for `COC(=O)[C@H](CCCCNC(=O)OCc1ccccc1)NC(=O)[C@@H](NC(=O)Nc1cc(C(F)(F)F)cc(C(F)(F)F)c1)C(C)C`, the GI50 in [1], in assay [2], in assay [3], in assay [4], in assay [5] and in [6] was > 10 µM throughout. Also, the GI50 in assay [7], in assay [8], in [9] and in [10] was > 10 µM each time. Also, the TGI in [1], in assay [2], in assay [3], in assay [4], in [5] and in assay [6] was > 10 µM each time. The TGI in assay [7], in assay [8], in [9] and in [10] was > 10 µM in each case.

Regarding `CC[Si](CC)(CC)OC1[C@@H](O[Si](CC)(CC)CC)[C@@H](CNC(=O)NC)O[C@H]1n1cnc2c(NC(=O)Nc3ccccc3)ncnc21` (some centres not stated), the GI50 in assay [1] was 2.61 µM; in assay [2] it was 5.02 µM; in assay [3], 3.95 µM; in [4] it was 2.36 µM; in assay [5], 3.83 µM; in assay [6], 16 µM. In addition, the GI50 in assay [7] was 3.17 µM; in assay [8], 5.28 µM; in assay [9], 2.49 µM; in assay [10], 4.18 µM. The TGI in assay [1] is 7.85 µM; in [2] it was > 100 µM; in assay [3] it was > 100 µM; in [4], 5.2 µM; in assay [5], 78.5 µM; in assay [6] it was > 100 µM. Moreover, the TGI in assay [7] was > 100 µM; in assay [8], > 100 µM; in assay [9], 5.9 µM; in assay [10], 56.1 µM.

Regarding `COc1cc(/C=C/c2ccnc3ccccc23)cc(OC)c1OC`, the GI50 in assay [1] was 5.25 µM; in [2], 4.94 µM; in [3], 1.7 µM; in assay [4], 0.755 µM; in [6] it was 5.87 µM; in assay [7], 0.355 µM. Also, the GI50 in assay [8] is 6.71 µM; in assay [10], 2.8 µM. Moreover, the TGI was 29.3 µM and > 100 µM in [1]; 35 µM and > 100 µM in assay [2]; 5.4 µM in [3]; 46.8 µM and 7.39 µM in assay [5]; 37.7 µM and > 100 µM in assay [6]; 1.87 µM and 1.85 µM in [7]. In addition, the TGI in assay [8] is 42.1 µM and > 100 µM; in assay [9] it was > 100 µM; in [10], 9.42 µM and 46 µM.

Turning to `CCC(C)C(=O)OC1CCC=C2C=CC(C)C(CCC3CC(O)CC(=O)O3)C21` (configuration not stated), the TGI in assay [1] is > 100 µM; in assay [2], 44.1 µM; in assay [3], > 75.9 µM; in assay [4], > 51 µM; in [5], 21 µM; in assay [6], > 100 µM. For the same molecule, the TGI in assay [7] was > 100 µM; in assay [8], > 100 µM; in assay [9] it was > 100 µM; in assay [10], > 64.7 µM.

For the molecule `O=C(O)c1[nH]c2c([N+](=O)[O-])cc([N+](=O)[O-])cc2c1C(=O)O`, the TGI in [1], in [2], in assay [3], in assay [4], in assay [5] and in assay [6] was > 100 µM each time. For the same molecule, the TGI in [7], in assay [8], in assay [9] and in assay [10] was > 100 µM in each case.

Turning to `CCCCC[C@H]1C/C=C2/C(=O)C(Cl)=C[C@@H]2C/C=C\CCCC(=O)O1`, the GI50 in assay [1] was 0.126 µM; in assay [2] it was 0.444 µM; in [3], 1.76 µM; in assay [4], 0.122 µM; in [5], 0.335 µM; in [6], 0.53 µM. Moreover, the GI50 in [7] was 0.337 µM; in assay [8], 0.59 µM; in assay [9] it was 0.439 µM; in [10] it was 0.642 µM. For the same molecule, the TGI is 0.449 µM in [1]; 1.24 µM in assay [2]; 6.09 µM in assay [3]; 2.68 µM in [4]; 0.755 µM in assay [5]; 1.15 µM in assay [6]. For the same molecule, the TGI in assay [7] was 1.11 µM; in [8], 2.68 µM; in [9] it was 1.13 µM; in assay [10], 2.24 µM.
